Data as given in patent US11612581B2, “Cannabis and derivatives thereof for the treatment of pain and inflammation related with dental pulp and bone regeneration related to dental jaw bone defects” (CANNIBITE BVBA, priority 2017, dated 2023).

Columns and labels:
[1] = system: bacteria's from the nerve fiber; assay: Bacteria on nerve fiber of pulp removed by pulpectomy, phase contrast microscopy without staining; type: cell-based
Procedure: A patent diagnosed with acute pulpitis with severe signs of pain on cold irritants, percussion pain with x-ray deep caries radiolucent areas adjacent to the coronal pulp. Hyperemia is evident in the dental canal system when opening of the coronal part of pulp chamber.
Pulpectomy (Removal of the entire pulp structure of a tooth, including the pulp tissue in the roots) was performed. The pulp was analyzed by phase contrast microscopy without staining.
Following Pulpectomy a solution of 0.1 ml CBD (25%) was applied for 1 min.
The same application was made with a Clorhexidine gluconate 2% solution used in endodontics to rinse canal system of the roots. A reduction of less than 20% in bacteria's was observed.

[2] = system: chronic irreversible pulpitis combined with periapical lesion; assay: Root canal treatment with CBD added to dressing and sealer, bone regeneration by X-ray (Patient 1); type: in vivo, human
Procedure: Histology slides prepared after pulpectomy of a second mandibular molar diagnosed with chronic irreversible pulpitis combined with periapical lesion (FIG. 6).
The treatment was performed with regular methods, in 2 steps 1 week rest. In the temporary dressing of the root canal medication Hydroxide Calcium was introduced 0.1 ml of CBD (25%) as well in the permanent sealer EWT Ken pulp sealer was introduced 0.5 ml of CBD (25%), pulp canal system sealed with sealer and gutta-percha.
With standard treatment for periapical lesion, regeneration is usually noticed 6 months after treatment.

[3] = system: pulp extract from the teeth; assay: Pulp extract treated in-vitro and sent to pathology lab (samples 1a, 1b); type: cell-based, human; conditions: 0.1 ml of Clorhexidine Gluconate 2% (sample 1a) or CBD 25% (sample 1b)
Procedure: The pulp extract from the teeth was treated in-vitro and was sent to pathology lab. Pulp was extracted and separated to two samples:
Sample 1a was treated with 0.1 ml Clorhexidine Gluconate 2%.

vestibular canal pulp = assay: Extracted dental pulp of hemisected wisdom tooth treated with CBD solution (samples 3a, 3b); type: cell-based, human; conditions: sample 3b, 0.1 ml 25% solution, compared to 3a (Formalin)
Procedure: A patient with chronic irreversible pulpitis element 28 wisdom tooth.
The element was hemisected and dental pulp extracted from tooth.
Sample 3a: Palatinal pulp was placed in Formalin.
Sample 3b: 0.1 ml CDB (25%) solution was applied to the vestibular canal pulp.

live bacterial cells = assay: Anti-bacterial activity on inflamed dental pulp and dental plaque samples, Dojindo staining, Cytation 5 imaging; type: cell-based; conditions: incubated for 5 min
Procedure: CDB Solutions: Two CBD solutions were prepared at concentrations of 12.5% and 25% by dissolving CDB (as powder, 98% purity) in methanol to obtain the desired concentration.
Samples of inflamed dental pulp and dental plaque were collected from various subjects and incubated at 37° C. for 24 hours
The samples where then treated with CBD solutions (12.5% and 25%) and incubated for 5 min. The samples were stained with Dojindo Rapid staining kit BS02 and evaluated under a Cytation 5 cell imaging microscope.

mid-femoral fractures = conditions: rats with mid-femoral fractures, after eight weeks; cited from earlier work
[4] = relative to THC; cited from earlier work

Compound | reduction of bacteria's from the nerve fiber ([1]; 0.1 ml CBD (25%) applied for 1 min following pulpectomy) | bone regeneration on re-examination ([2]; 8 weeks after treatment) | bone regeneration in the apical region by X-ray ([2]; after 1 week, 0.1 ml CBD (25%) in Hydroxide Calcium dressing, 0.5 ml CBD (25%) in sealer) | pathology lab findings of treated pulp sample [3] | inflammation and infection of pulp sample (vestibular canal pulp) | reduction in live bacterial cells as compared to an untreated sample (live bacterial cells; 12.5% CBD solution) | reduction in live bacterial cells as compared to an untreated sample (live bacterial cells; 25% CBD solution) | bone fractures healing (mid-femoral fractures) | less active than THC [4] | reduction in bacteria's ([1]; Clorhexidine gluconate 2% solution, same application)
C=C(C)[C@@H]1CCC(C)=C[C@H]1c1c(O)cc(CCCCC)cc1O [CBD, cannabidiol] | total reduction | total regeneration | bone regeneration was identified | connective tissue, bone and no bacteria | no inflammation and no infection | > 75% | > 90% | enhances bone fractures healing |  | 
CCCCCc1cc(O)c2c(c1)OC(C)(C)[C@@H]1CC=C(C)C[C@@H]21 [Δ8-THC] |  |  |  |  |  |  |  |  | ~20% | 
N=C(NCCCCCCNC(=N)NC(=N)Nc1ccc(Cl)cc1)NC(=N)Nc1ccc(Cl)cc1.O=C(O)[C@H](O)[C@@H](O)[C@H](O)[C@H](O)CO.O=C(O)[C@H](O)[C@@H](O)[C@H](O)[C@H](O)CO [Clorhexidine gluconate] |  |  |  | debris, bacteria, and enamel cement |  |  |  |  |  | less than 20%
